# From the supplement of paper PMC10307832
# Columns and labels:
# Assay in all cases: relative viability (nuclei count vs DMSO), 5 days (fraction); higher = more cells survive
# NPK76-II-72-1 + AZD7762 = compound: CC1CC(=O)N(C2=CN=C(N=C2N1C3CCCC3)NC4=C(C=C(C=C4)C(=O)NC5CCN(CC5)C)OC)C [NPK76-II-72-1] + NC(=O)Nc1cc(-c2cccc(F)c2)sc1C(=O)N[C@H]1CCCNC1 [AZD7762] (partner 0.2 µM)
# How it was run: (§1)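 After 5 days of treatment, lung cancer cells in 1536-well plates were fixed and stained in a single step (final 0.05% Triton X-100, 1% formaldehyde, 1 ug/ml Hoechst) and their nuclei counted on 4× images. Treatment had been applied by pin tool the day after seeding as one drug alone or as a fixed anchor-drug dose with five library-drug doses (not always all listed) in √10 steps. Relative viability is the nuclei count of treated wells divided by that of vehicle wells, and values are medians of duplicate plates.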
# [1] = compound: CC1CC(=O)N(C2=CN=C(N=C2N1C3CCCC3)NC4=C(C=C(C=C4)C(=O)NC5CCN(CC5)C)OC)C [NPK76-II-72-1] + Cc1cc(Nc2cc(N3CCN(C)CC3)nc(Sc3ccc(NC(=O)C4CC4)cc3)n2)n[nH]1 [Tozasertib] (partner 0.1 µM)
# How it was run: as §1
# [2] = compound: CC1CC(=O)N(C2=CN=C(N=C2N1C3CCCC3)NC4=C(C=C(C=C4)C(=O)NC5CCN(CC5)C)OC)C [NPK76-II-72-1] + Nc1nc2[nH]cc(CCc3ccc(C(=O)N[C@@H](CCC(=O)O)C(=O)O)cc3)c2c(=O)[nH]1 [Pemetrexed] (partner 0.2 µM)
# How it was run: as §1
# BI-2536 + Phenformin = compound: CC[C@@H]1C(=O)N(C)c2cnc(Nc3ccc(C(=O)NC4CCN(C)CC4)cc3OC)nc2N1C1CCCC1 [BI-2536] + N=C(N)NC(=N)NCCc1ccccc1 [Phenformin] (partner 250 µM)
# How it was run: as §1
Cell Line,relative viability (NPK76-II-72-1 + AZD7762; first compound 0.01 µM),relative viability (NPK76-II-72-1 + AZD7762; first compound 0.03162 µM),relative viability (NPK76-II-72-1 + AZD7762; first compound 0.1 µM),relative viability (NPK76-II-72-1 + AZD7762; first compound 0.3162 µM),relative viability (NPK76-II-72-1 + AZD7762; first compound 1 µM),relative viability ([1]; first compound 0.01 µM),relative viability ([1]; first compound 0.03162 µM),relative viability ([1]; first compound 0.1 µM),relative viability ([1]; first compound 0.3162 µM),relative viability ([1]; first compound 1 µM),relative viability ([2]; first compound 0.01 µM),relative viability ([2]; first compound 0.03162 µM),relative viability ([2]; first compound 0.1 µM),relative viability ([2]; first compound 0.3162 µM),relative viability ([2]; first compound 1 µM),relative viability (BI-2536 + Phenformin; first compound 0.01 µM),relative viability (BI-2536 + Phenformin; first compound 0.03162 µM),relative viability (BI-2536 + Phenformin; first compound 0.1 µM),relative viability (BI-2536 + Phenformin; first compound 0.3162 µM),relative viability (BI-2536 + Phenformin; first compound 1 µM)
201T,0.579,0.759,0.62,0.618,0.619,0.884,0.948,0.984,0.939,0.976,0.344,0.319,0.338,0.324,0.333,0.38,0.431,0.276,0.315,0.23
A549,,,,,,,,,,,,,,,,0.143,0.132,0.0229,0.0377,0.0372
A-427,0.682,0.673,0.945,0.796,0.814,0.222,0.23,0.207,0.192,0.252,0.903,0.991,0.978,0.965,1.01,0.35,0.273,0.151,0.0945,0.134
ABC-1,0.73,0.726,0.719,0.536,0.72,0.185,0.179,0.172,0.21,0.155,,,,,,0.307,0.256,0.222,0.196,0.191
BEN,0.77,0.516,0.791,0.572,0.786,0.462,0.46,0.551,0.496,0.552,0.794,0.683,0.739,0.755,0.934,0.262,0.249,0.207,0.231,0.186
CAL-12T,0.65,0.718,0.506,0.645,0.724,0.33,0.324,0.314,0.25,0.363,0.927,1.1,1.14,0.943,1.5,0.543,0.422,0.289,0.134,0.115
COR-L23,,,,,,0.195,0.23,0.218,0.182,0.192,0.207,0.19,0.195,0.193,0.211,0.434,0.371,0.116,0.0966,0.0886
COR-L 105,,,,,,0.351,0.348,0.305,0.407,0.328,1.06,1.07,0.992,1.02,1.12,0.507,0.483,0.311,0.215,0.21
ChaGo-K-1,0.829,0.873,0.833,0.809,0.839,0.239,0.256,0.238,0.225,0.231,0.243,0.259,0.261,0.246,0.257,0.492,0.507,0.238,0.158,0.148
EKVX,0.672,0.629,0.718,,0.83,0.335,0.339,0.416,0.379,0.474,0.358,0.447,0.435,,0.387,0.242,0.224,0.225,0.242,0.211
EMC-BAC-2,1.02,1.07,1.02,1.09,1.17,0.298,0.339,0.296,0.294,0.316,0.451,0.497,0.446,0.451,0.453,0.547,0.477,0.352,0.155,0.208
EPLC-272H,0.183,0.207,0.22,0.254,0.208,0.278,,0.281,0.229,0.229,0.338,0.303,0.303,0.311,0.335,0.241,0.28,0.105,0.109,0.103
H3255,0.841,0.815,0.959,0.655,0.988,0.623,0.729,0.734,0.434,0.673,0.565,0.517,0.604,0.446,0.602,0.3,0.318,0.306,0.268,0.329
HARA,0.292,0.464,0.297,,0.451,0.124,0.0912,0.116,0.106,0.108,0.293,0.28,0.256,,0.195,0.511,0.55,0.376,0.049,0.0462
HCC-15,1.18,1.32,0.549,1.16,1.23,0.394,0.384,0.342,0.41,0.462,0.214,0.23,0.219,0.225,0.235,0.474,0.485,0.149,0.103,0.108
HCC-44,1.02,1.09,0.966,0.999,1.07,0.875,1.16,0.962,0.795,1.04,0.65,0.689,0.613,0.619,0.684,0.184,0.242,0.0815,0.1,0.0914
HCC-78,0.634,0.574,0.593,0.521,0.755,0.446,0.407,0.408,0.368,0.429,0.978,0.893,0.75,0.869,0.895,0.74,0.721,0.636,0.315,0.197
